Measurements published in paper PMC12136031 (Science Advances, 2025).
Blank lines part the entries; values can stand above or below the molecule they belong to.

Assays:
TFEB = assay: Immunoblot of TFEB in OC43-infected BEAS-2B cells; type: cell-based, human; settings: for Decline in TFEB protein levels during viral infection: OC43, mTORC1 inhibition (10 nM); for TFEB protein during viral infection: OC43, cotreatment with inhibitors of ubiquitin-proteasome system
[1] = target: T1, DCAF7 recombinant protein, P61962; assay: streptavidin pull-down (peptide binding assay), DCAF7 immunoblot densitometry; settings: chain shown with the change; n = 3; parent: est. 1.0; read off a plot
T1 chain: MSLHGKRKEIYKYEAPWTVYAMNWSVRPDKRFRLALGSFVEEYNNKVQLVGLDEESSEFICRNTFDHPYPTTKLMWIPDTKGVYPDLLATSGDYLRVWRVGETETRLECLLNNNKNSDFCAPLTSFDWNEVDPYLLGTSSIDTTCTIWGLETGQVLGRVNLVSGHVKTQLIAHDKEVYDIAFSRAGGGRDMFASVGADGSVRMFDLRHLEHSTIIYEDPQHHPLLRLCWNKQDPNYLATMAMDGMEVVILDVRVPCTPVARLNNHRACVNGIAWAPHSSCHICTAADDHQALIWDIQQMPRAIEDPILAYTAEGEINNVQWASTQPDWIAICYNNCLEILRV

Molecule: CCC(=O)N1CCN(c2ccc(-n3c(=O)ccc4cnc5ccc(-c6cnc7ccccc7c6)cc5c43)cc2C(F)(F)F)CC1 [Torin1]
- Decline in TFEB protein levels during viral infection (TFEB): did not rescue

Molecule: CC(C)C[C@H](NC(=O)[C@H](CCc1ccccc1)NC(=O)CN1CCOCC1)C(=O)N[C@@H](Cc1ccccc1)C(=O)N[C@@H](CC(C)C)C(=O)[C@@]1(C)CO1 [carfilzomib]
- TFEB protein during viral infection (TFEB): substantially preserved

Molecule: CO[C@H]1C[C@@H]2CC[C@@H](C)[C@@](O)(O2)C(=O)C(=O)N2CCCC[C@H]2C(=O)O[C@H]([C@H](C)C[C@@H]2CC[C@@H](O)[C@H](OC)C2)CC(=O)[C@H](C)/C=C(\C)[C@@H](O)[C@@H](OC)C(=O)[C@H](C)C[C@H](C)/C=C/C=C/C=C/1C [rapamycin]
- Decline in TFEB protein levels during viral infection (TFEB): did not rescue

Molecule: NS(=O)(=O)OC[C@@H]1C[C@@H](n2ccc3c(N[C@H]4CCc5ccccc54)ncnc32)C[C@@H]1O [MLN4924]
- TFEB protein during viral infection (TFEB): substantially preserved

Molecule: NS(=O)(=O)OC[C@H]1C[C@@H](Nc2ccnc3cc(-c4cccc(SC(F)(F)F)c4)nn23)[C@H](O)[C@@H]1O [TAK-243]
- TFEB protein during viral infection (TFEB): substantially preserved

- response [1]: 2.9
Molecule: GNDAPNDPMA [Biotinylated TFEB peptide, region 136 to 145, unmodified sequence (I), P19484 S138D; S142D]

- response [1]: 0.5
Molecule: GNAAPNAPMA [Biotinylated TFEB peptide, region 136 to 145, unmodified sequence (I), P19484 S138A; S142A]
